# Reference: patent publication US6555126B2, “Method for treating, controlling, and preventing Diabetes Mellitus” (Diabex, Inc., priority 1999, dated 2003)
# Experiments:
# rats (Rattus rattus) = assay: LD 50 determination in rats, single subcutaneous dose; format: in vivo; conditions: one single dose subcutaneously
# Protocol: 1. LD 50: For this determination, 59 rats (Rattus rattus) of both sexes were used with body weights of 200-240 grams to determine the LD50. The rats were divided into groups consisting of 5-6 rats each.
# The rats were fed standard laboratory pellet diet and water ad libitum. Linalool was given as one single dose subcutaneously to rats in gradually increasing doses of 0.2 ml/kg body weight, […], 0.3 ml/kg, 0.35 ml/kg, 0.40 ml/kg, 0.45 ml/kg, 0.50 ml/kg, 0.55 ml/kg, 0.60 ml/kg, 0.65 ml/kg.
# LD 50 was determined to be 0.63 ml/kg body weight.
# normoglycemic rats = assay: Hypoglycemic effect of a single intraperitoneal injection in normoglycemic rats; format: in vivo
# Excerpt: (§1) Preparation of Animals: For each experiment, eight (8) overnight fasted normoglycemic and diabetic rats were used. The animals were kept in the experimental animal laboratory for three days with free access to food and water.
# (§2) On the day of the experiment, blood samples were collected at zero time before IP injection of the test substance (Riedel De Hein—Germany), and at intervals as given in Table 1 and 2. Blood samples were drawn from the ear vein in 100 micro millimeter heparinized capillary tubes.
# (§3) Blood glucose concentrations were determined according to glucose oxidase method, using glucose enzymatic kits (Biomerioux France).
# (§4) The percentage change in glycaemia was calculated.
# (§5) For control animals, sterile saline solution was used instead of Linalool.
# (§6) Data are expressed as means and standard error of the mean (S.E.M.) statistical analysis were performed using student's t test.
# [1] = system: Streptozocin diabetic rats; assay: Hypoglycemic effect of a single intraperitoneal injection in Streptozocin diabetic (hyperglycemic) rats; format: in vivo
# Protocol: as §1
# Hyperglycemia was induced in the diabetic group of rats by a single intraperitoneal injection of Streptozocin (Upjohn Co, Kalamazoo, Mich., USA). […] body weight-freshly dissolved in citrate phosphate buffer with pH adjusted to 4.5.
# Diabetes was confirmed one week after administration of Streptozocin by determining the fasting blood glucose concentration. […] The fasting blood glucose concentration in normal rats is 90-120 mg/dl.
# as §2, §3, §4, §5, §6
# [2] = system: diabetic volunteers (Diabetes Mellitus); assay: Limited clinical study in diabetic volunteers; format: in vivo, human; set-up: key to readings (blood glucose) / Fasting Blood Sugar: blood glucose in mg/dl
# Protocol: The study was conducted with strict and continuous monitoring of all vital physical parameters of all volunteers. No clinical or biochemical side effects were observed during or after the test periods. Special attention was made while monitoring Blood Urea, Serum Creatinine, SGPT, Cholesterol, and Triglycerides.
# The study involved over 200 diabetic volunteers with different types of Diabetes Mellitus and from different countries, and of both sexes. The breakdown was as follows:
# Group One: Two (2) volunteers were new Diabetes Mellitus patients (Virgin cases).
# These volunteers had never been treated for the disease and never taken any of the known and standard Diabetes Mellitus medications.
# Started using Linalool Enteric Coated Softgels 0.45 ml 3 times daily with meals, on Feb. 22nd, 1999.
# Group Two: One (1) volunteer had hyper insulinemia with readings of 400 mg/dl of glucose
# The study involved over two hundred diabetic volunteers of both sexes, who had the disease from 3 to 25 years. In various lots, the volunteers were on insulin alone, insulin and hypoglycemic drugs, or hypoglycemic drugs alone. The patients took the product in the form of softgel enteric coated capsules (0.5 ml Linalool and 100 mg vitamin E) one capsule with meals three times a day. The duration of treatment was minimum three months. The product was given along with the classical hypoglycemic treatment (insulin and others). These classical hypoglycemic medications, Insulin—morning and evening, and Daonil (Glibenclamide 5 mg), Glucaphage (metformin 850 mg and other medications, were decreased gradually depending on the monitored improvements of the patient condition.
# [3] = Group Two volunteer, hyper insulinemia, June 24, 1999
molecule,measurement,setting,value
"C=CC(C)(O)CCC=C(C)C (stereo not drawn) [Linalool, 3,7 dimethyl-1,6-octadien-3-ol]",LD 50,rats (Rattus rattus),0.63 ml/kg body weight
same,Change in blood glucose % at 15 min.,"normoglycemic rats; Table 1, normoglycemic rats, 0.2 ml/kg single i.p. injection, 15 min",−36.1%
same,Change in blood glucose % at 1 h.,"normoglycemic rats; Table 1, normoglycemic rats, 0.2 ml/kg single i.p. injection",−35.2%
same,Change in blood glucose % at 1 h.,"normoglycemic rats; Table 2, normoglycemic rats, 0.2 ml/kg single i.p. injection, mean ± S.E.M.",−35.2 ± 6.2 %
same,Change in blood glucose % at 4 h.,"normoglycemic rats; Table 2, normoglycemic rats, 0.2 ml/kg single i.p. injection, 4 h, mean ± S.E.M.",−40.9 ± 8.2 %
same,Change in blood glucose % at 24 h.,"normoglycemic rats; Table 2, normoglycemic rats, 0.2 ml/kg single i.p. injection, 24 h, mean ± S.E.M.",−18.9 ± 4.4 %
same,hypoglycemic activity within the first four hours after the administration,"normoglycemic rats; first of two values, normoglycemic rats (first hour)",33.2%
same,time of highest hypoglycemic activity after the intraperitoneal injection,normoglycemic rats; normoglycemic rats,four
same,decrease in blood glucose concentration within the first 15 min,normoglycemic rats; normoglycemic rats treated by Linalool,36.1%
same,hypoglycemic activity (in words),"normoglycemic rats; normoglycemic rats, i.p. injection",significant hypoglycemic activity
same,Change in blood glucose % at 15 min.,"[1]; Table 1, hyperglycemic rats, 0.2 ml/kg single i.p. injection, 15 min",−32.1%
same,Change in blood glucose % at 1 h.,"[1]; Table 1, hyperglycemic rats, 0.2 ml/kg single i.p. injection",−35%
same,Change in blood glucose % at 1 h.,"[1]; Table 2, hyperglycemic rats, 0.2 ml/kg single i.p. injection, mean ± S.E.M.",−36.4 ± 8.6 %
same,Change in blood glucose % at 4 h.,"[1]; Table 2, hyperglycemic rats, 0.2 ml/kg single i.p. injection, 4 h, mean ± S.E.M.",−43.7 ± 6.6 %
same,Change in blood glucose % at 24 h.,"[1]; Table 2, hyperglycemic rats, 0.2 ml/kg single i.p. injection, 24 h, mean ± S.E.M.",−55.8 ± 6.2 %
same,time of highest hypoglycemic activity after the injection,[1]; hyperglycemic rats,24 h
same,decrease in blood glucose concentration within the first 15 min,[1]; hyperglycemic rats treated by Linalool,32.1%
same,hypoglycemic activity (in words),"[1]; hyperglycemic rats, i.p. injection",significant hypoglycemic activity
same,hypoglycemic activity within the first four hours after the administration,"[1]; second of two values, hyperglycemic rats (first hour)",36.4%
same,readings (blood glucose),"[2]; Group Three volunteer 4, Dec. 17",175 mg/dL
same,readings (blood glucose),"[2]; Group Three volunteer 4, Dec. 24",163
same,readings (blood glucose),"[2]; Group Three volunteer 4, Jul. 26, 1999",105 mg/dL
same,clinical outcome (physician's judgement),"[2]; Group Three volunteer 4, July 14th, taken off all medication",CURED
same,HbAlc Readings (lowered to),"[2]; Group Three volunteer 4, Jun. 4, 1999",6.18%
same,readings (blood glucose),"[2]; Group Three volunteer 4, Jun. 18",109
same,readings (blood glucose),"[2]; Group Three volunteer 4, Jun. 26",105
same,"HbAlc Readings, starting value (lowered from)","[2]; Group Three volunteer 4, date not stated",9.3%
same,Fasting Blood Sugar,"[2]; Group Three volunteer 5, diabetic over 20 years, Jul. 27, 1998",233 mg/dL
same,HbAlc,[2]; [3],7.5%
same,"Insulin, Fasting",[2]; [3],25.6 uU/mL
same,"Serum Glucose, Fasting",[2]; [3],222 mg/dL
same,"Serum Glucose, Fasting","[2]; Group Two volunteer, hyper insulinemia, May 17, 1999, untreated reading 197 mg/dl",200 mg/dL
same,HbAlc,"[2]; Group Two volunteer, hyper insulinemia, May 17, 1999, untreated reading 8.2%",8.1%
same,"Insulin, Fasting","[2]; Group Two volunteer, hyper insulinemia, May 17, 1999, untreated reading 42 uU/mL",18.40 uU/mL
same,reduction of fasting insulin level,"[2]; Group Two volunteer, from 42 uU/mL to 25.6",~50%
same,Fasting Blood Sugar,"[2]; volunteer 5, Aug. 17, 1998",190
same,HbAlc,"[2]; volunteer 5, Aug. 17, 1998",10.1%
same,Fasting Blood Sugar,"[2]; volunteer 5, Jan. 27, 1999",167
same,HbAlc,"[2]; volunteer 5, Jan. 27, 1999",7.0%
same,HbAlc,"[2]; volunteer 5, Jul. 27, 1998",11.2%
same,Fasting Blood Sugar,"[2]; volunteer 5, Nov. 1, 1998",114
same,Fasting Blood Sugar,"[2]; volunteer 5, Nov. 12, 1998",135
same,HbAlc,"[2]; volunteer 5, Nov. 12, 1998",7.5%
same,Fasting Blood Sugar,"[2]; volunteer 5, Sep. 17, 1998",166
same,HbAlc,"[2]; volunteer 5, Sep. 17, 1998",9.7%
"insulin: short acting soluble insulin preparation, 5 units injected IP as comparator [reference compound]",decrease in blood glucose concentration within the first 15 min,"normoglycemic rats; insulin injection, called insignificant, rat group not stated",17.1%
same,decrease in blood glucose concentration after one hour,"normoglycemic rats; normoglycemic rats, 5 units of insulin injected IP",49%
same,decrease in blood glucose concentration after one hour,"[1]; hyperglycemic rats, 5 units of insulin injected IP",47.1%
